Laboratory results published in US9408851B2, “Compounds” (Glaxo Group Limited, priority 2004, dated 2016).

Columns and labels:
[1] = target: T1, recombinant human Oxytocin-1 (hOT) receptor (Homo sapiens, UniProt P30559); assay: Antagonist affinity at human Oxytocin-1 receptors using FLIPR ([Ca2+]i); type: cell-based; conditions: Assay 1, CHO-hOT cells, oxytocin at EC80, read-out: fpKi
T1 construct: expressed in transfected cells
T1 sequence (P30559 1-389): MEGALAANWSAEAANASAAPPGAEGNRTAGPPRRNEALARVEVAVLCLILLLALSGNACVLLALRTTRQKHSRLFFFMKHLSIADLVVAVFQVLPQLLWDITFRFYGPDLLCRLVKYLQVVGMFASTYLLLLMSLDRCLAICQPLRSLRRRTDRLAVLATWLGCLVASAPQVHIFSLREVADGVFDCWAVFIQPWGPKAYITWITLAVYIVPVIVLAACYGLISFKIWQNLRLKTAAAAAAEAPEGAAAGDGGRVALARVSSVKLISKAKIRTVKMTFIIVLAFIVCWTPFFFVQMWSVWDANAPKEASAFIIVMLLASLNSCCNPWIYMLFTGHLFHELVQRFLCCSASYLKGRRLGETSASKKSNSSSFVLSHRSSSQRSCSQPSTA
Experimental: Determination of Antagonist Affinity at Human Oxytocin-1 Receptors using FLIPR
Adherent Chinese Hamster Ovary (CHO) cells, stably expressing the recombinant human Oxytocin-1 (hOT) receptor, were maintained in culture in DMEM:F12 medium (Sigma, cat no D6421), supplemented with 10% heat inactivated foetal calf serum
(Gibco/Invitrogen, cat. no. 01000-147), 2 mM L-glutamine (Gibco/Invitrogen, cat. no. 25030-024) and 0.2 mg/ml G418 (Gibco/Invitrogen, cat no. 10131-027). Cells were grown as monolayers under 95%:5% air:CO2 at 37° C. and passaged every 3-4 days using TrypLE™ Express (Gibco/Invitrogen, cat no. 12604-013).
Measurement of [Ca^2+]i using the FLIPR™
CHO-hOT cells were seeded into black walled clear-base 384-well plates (Nunc) at a density of 10,000 cells per well in culture medium as described above and maintained overnight (95%:5% air:CO2 at 37° C.). […] Cells were then incubated for an additional 30 min at 37° C. with either buffer alone or buffer containing OT antagonist, before being placed into a FLIPR™ (Molecular Devices, UK) to monitor cell fluorescence (λex=488 nm, λEM=540 nm) before and after the addition of a submaximal concentration of oxytocin (EC80).
Functional responses using FLIPR were analysed using Activity Base Version 5.0.10.

[2] = In vitro intrinsic clearance in microsomes, rat; type: in vitro ADME; conditions: Assay 3, rat female microsomes, 0.5 uM compound, 0.5 mg/mL protein, 37° C.; for microsomal CLint at 0.5 uM: pH 7.4
Experimental: (§1) Determination of In vitro Intrinsic Clearance in Microsomes
(§2) NADP regeneration buffer for use in incubations was prepared fresh on the assay day. It contained 7.8 mg glucose-6-phosphate (mono-sodium salt), 1.7 mg NADP and 6 Units glucose-6-phosphate dehydrogenase per 1 mL of 2% sodium bicarbonate. Microsomes (human, female; cynomolgus monkey, female; dog, female; rat, female) were prepared in pH7.4 phosphate buffer and contained 0.625 mg protein/mL. Unless stated, all subsequent steps were performed by a Tecan Genesis 150/8 RSP. A 1.25 mM stock solution of the compounds was prepared in Acetonitrile/water (1:1). 25 ul of the 1.25 mM stock solution was added to 600 ul of Acetonitrile/water (1:1) to give a 50 uM solution. For each species, the 50 uM solutions (10 uL) were added to microsomes (790 uL) in a microplate (Porvair, 96 deepwell, square). 400 uL of the microsomal solution containing the compound was transferred to a microplate (Porvair, 96 deepwell, round) and was pre-warmed at 37° C. for five minutes prior to initiation of incubations. All incubations were initiated by addition of 100 uL of
(§3) NADP regeneration system to the pre-warmed microsomes. The mixtures were incubated at 37° C. in a Techne heating block. Following 0, 3, 6, 12 and 30 minutes incubation, 20 uL aliquots were taken and added to 100 uL of acetonitrile containing internal standard.
(§4) For determination of the rate of metabolism, incubations were performed at a compound concentration of 0.5 uM and a protein concentration of 0.5 mg/mL. The concentration of solvent in the incubation was 0.5%.
(§5) Test compound concentrations were determined by LC/MS/MS; results were reported as analyte:internal standard peak area ratios.
(§6) The rate of disappearance was calculated by fitting a single exponential decay to the concentration-time curve using Excel and intrinsic clearance was calculated using the following formula: […]

[3] = In vitro intrinsic clearance in microsomes, human; type: in vitro ADME; conditions: Assay 3, human female microsomes, 0.5 uM compound, 0.5 mg/mL protein, 37° C.; for microsomal CLint at 0.5 uM: pH 7.4
Experimental: as §1, §2, §3, §4, §5, §6

[4] = target: T2, human recombinant oxytocin receptors (Homo sapiens, UniProt P30559); assay: Oxytocin binding assay ([3H]-oxytocin, CHO cell membranes); conditions: Assay 2, Ki from IC50 by Cheng and Prusoff
T2 construct: expressed in transfected cells; host or cells: membranes of CHO cells
T2 sequence (P30559 1-389): T1 sequence (P30559 1-389)
Experimental: Membranes were prepared from CHO cells expressing human recombinant oxytocin receptors. The membrane preparation was frozen in aliquots at −70° C. until used.
Membranes (˜50 ug) were incubated in 200 ul of assay buffer (50 mM Tris, 10 mM MgCl2, and 0.1% bovine serum albumin, pH 7.5) containing ˜2.4 nM of [3H]-oxytocin in the absence (total binding) or presence (non-specific binding) of 1 uM unlabeled oxytocin and increasing concentrations of the compounds in Examples 1 to 6 or comparator compounds. Incubations were performed at room temperature for 60 minutes. The reactions were stopped with 3 ml of ice cold buffer and filtered through Whatman GF/C filter paper presoaked in 0.3% polyethylenimine. The filters were washed 4 times with 3 ml buffer using a Brandel cell harvester. The filters were counted in 3 ml Ready Safe scintillation fluid (Beckman).
Specific binding represented approximately 90% of total binding.
IC50 values were determined from competition binding experiments using non-linear regression analysis (GraphPad) and converted to Ki using the method of Cheng and Prusoff, 1974. Data are reported as mean values.

[5] = In vitro intrinsic clearance in microsomes, dog; type: in vitro ADME; conditions: Assay 3, dog female microsomes, 0.5 uM compound, 0.5 mg/mL protein, 37° C.; for microsomal CLint at 0.5 uM: pH 7.4
Experimental: as §1, §2, §3, §4, §5, §6

[6] = In vitro intrinsic clearance in microsomes, cynomolgus monkey; type: in vitro ADME; conditions: Assay 3, cynomolgus monkey female microsomes, 0.5 uM compound, 0.5 mg/mL protein, 37° C.; for microsomal CLint at 0.5 uM: pH 7.4
Experimental: as §1, §2, §3, §4, §5, §6

| Structure (SMILES) | Ki [1] | microsomal CLint at 0.5 uM [2] | microsomal CLint at 0.5 uM [3] | Ki [4] | microsomal CLint at 0.5 uM [5] | microsomal CLint at 0.5 uM [6] | Microsomal Cl, Human [3] | Microsomal Cl, Cynomolgus monkey [6] | Microsomal Cl, Rat [2] | Microsomal Cl, Dog [5] |
| --- | --- | --- | --- | --- | --- | --- | --- | --- | --- | --- |
| CC[C@H](C)[C@@H]1C(=O)N[C@H](C2Cc3ccccc3C2)C(=O)N1[C@@H](C(=O)NC)c1ccc(C)nc1C [Example 1, (2R)-2-{(3R,6R)-3-(2,3-Dihydro-1H-inden-2-yl)-6-[(1S)-1-methylpropyl]-2,5-dioxo-1-piperazinyl}-2-(2,6-dimethyl-3-pyridinyl)-N-methylethanamide] |  | 1 to 8 mL/min/g | 1 to 8 mL/min/g |  | 1 to 8 mL/min/g | 1 to 8 mL/min/g |  |  |  |  |
| CC[C@H](C)[C@@H]1C(=O)N[C@H](C2Cc3ccccc3C2)C(=O)N1[C@@H](C(=O)N1CCOCC1)c1ccc(C)nc1C [Example 3, (3R,6R)-3-(2,3-dihydro-1H-inden-2-yl)-1-[(1R)-1-(2,6-dimethyl-3-pyridinyl)-2-(4-morpholinyl)-2-oxoethyl]-6-[(1S)-1-methylpropyl]-2,5-piperazinedione] |  | 1 to 8 mL/min/g | 1 to 8 mL/min/g |  | 1 to 8 mL/min/g | 1 to 8 mL/min/g |  |  |  |  |
| CC[C@H](C)[C@@H]1C(=O)N[C@H](C2Cc3ccccc3C2)C(=O)N1[C@@H](C(=O)NC)c1cnc(C)cc1C [Example 5, (2R)-2-{(3R,6R)-3-(2,3-Dihydro-1H-inden-2-yl)-6-[(1S)-1-methylpropyl]-2,5-dioxo-1-piperazinyl}-2-(4,6-dimethyl-3-pyridinyl)-N-methylethanamide] |  | 1 to 8 mL/min/g | 1 to 8 mL/min/g |  | 1 to 8 mL/min/g | 16 to 20 mL/min/g |  |  |  |  |
| CC[C@H](C)[C@@H]1C(=O)N[C@H](C2Cc3ccccc3C2)C(=O)N1[C@@H](C(=O)N1CCOCC1)c1cnc(C)cc1C [Example 6, (3R,6R)-3-(2,3-dihydro-1H-inden-2-yl)-1-[(1R)-1-(4,6-dimethyl-3-pyridinyl)-2-(4-morpholinyl)-2-oxoethyl]-6-[(1S)-1-methylpropyl]-2,5-piperazinedione] |  | 1 to 8 mL/min/g | 1 to 8 mL/min/g |  | 1 to 8 mL/min/g | 16 to 20 mL/min/g |  |  |  |  |

Now from value to compound:

| Ki [1] | microsomal CLint at 0.5 uM [2] | microsomal CLint at 0.5 uM [3] | Ki [4] | microsomal CLint at 0.5 uM [5] | microsomal CLint at 0.5 uM [6] | Microsomal Cl, Human [3] | Microsomal Cl, Cynomolgus monkey [6] | Microsomal Cl, Rat [2] | Microsomal Cl, Dog [5] | Structure (SMILES) |
| --- | --- | --- | --- | --- | --- | --- | --- | --- | --- | --- |
| 0.631 to 7.94 nM | 1 to 8 mL/min/g | 9 to 15 mL/min/g | 0.0316 to 1.58 nM | 1 to 8 mL/min/g |  |  |  |  |  | Cc1ccc([C@H](C(=O)N(C)C)N2C(=O)[C@@H](C3Cc4ccccc4C3)NC(=O)[C@H]2CC(C)C)cn1 [Comparator X, (2R)-2-[(3R,6R)-3-(2,3-dihydro-1H-inden-2-yl)-6-isobutyl-2,5-dioxopiperazin-1-yl]-N,N-dimethyl-2-(6-methylpyridin-3-yl)ethanamide, reference compound] |
|  | 1 to 8 mL/min/g |  |  | 1 to 8 mL/min/g |  | +, + | ++, +++ |  |  | CC[C@H](C)[C@@H]1C(=O)N[C@H](C2Cc3ccccc3C2)C(=O)N1[C@@H](C(=O)N(C)C)c1ccc(C)nc1C [Example 2, (2R)-2-{(3R,6R)-3-(2,3-Dihydro-1H-inden-2-yl)-6-[(1S)-1-methylpropyl]-2,5-dioxo-1-piperazinyl}-2-(2,6-dimethyl-3-pyridinyl)-N,N-dimethylethanamide] |
|  |  |  |  |  |  | ++, + | +++++, +++++ | +, + | +, + | CC[C@H](C)[C@@H]1C(=O)N[C@H](C2Cc3ccccc3C2)C(=O)N1[C@@H](C(=O)N(C)C)c1cnc(C)cc1C [Example 4, (2R)-2-{(3R,6R)-3-(2,3-Dihydro-1H-inden-2-yl)-6-[(1S)-1-methylpropyl]-2,5-dioxo-1-piperazinyl}-2-(4,6-dimethyl-3-pyridinyl)-N,N-dimethylethanamide] |
